System: murine leukemia L1210 cell line
Test: In vitro cytotoxicity assay
Details: L1210 vs 3D7
Description: (§1) In preliminary experiments to evaluate cytotoxicity to mammalian cells, the murine leukemia L1210 cell line and the human liver cell line HepG2 were grown under identical conditions alongside Pf 3D7. These were treated with TrtE, the chemotherapeutic methotrexate, and DSM265, an inhibitor of parasite dihydroorotate dehydrogenase ([19]).

Row | Structure (SMILES) | Selectivity index (EC50 of L1210/EC50 3D7)
1 | Cc1cc(Nc2ccc(S(F)(F)(F)(F)F)cc2)n2nc(C(C)(F)F)nc2n1 [DSM265] | > 4,000

Same assay, conditions: Mus musculus, L1210, read-out: EC50 (µM) (95% CI) L1210

Row | Structure (SMILES) | EC50
2 | Cc1cc(Nc2ccc(S(F)(F)(F)(F)F)cc2)n2nc(C(C)(F)F)nc2n1 [DSM265] | > 20 µM
3 | CN(Cc1cnc2nc(N)nc(N)c2n1)c1ccc(C(=O)N[C@@H](CCC(=O)O)C(=O)O)cc1 [Methotrexate] | 0.012 µM

System: P. falciparum clone TM90C2A
Test: not given
Details: by EC50 or, for ART, RSA, well-characterized susceptibilities; cited from earlier work

Row | Structure (SMILES) | Clone susceptibility to antimalarial (R/S)
4 | CC1(C)N=C(N)N=C(N)N1c1ccc(Cl)cc1 [CG, cycloguanil] | R
5 | Cc1cc(Nc2ccc3ccccc3c2)n2ncnc2n1 [DSM1] | S
6 | OC(c1cc(C(F)(F)F)nc2c(C(F)(F)F)cccc12)C1CCCCN1 (stereo not drawn) [MQ, mefloquine] | R
7 | C[C@@H]1CC[C@H]2[C@@H](C)C(=O)O[C@@H]3O[C@@]4(C)CC[C@@H]1[C@]32OO4 [artemisinin] | S

System: P. falciparum clone 7G8
Test: not given
Details: by EC50 or, for ART, RSA, well-characterized susceptibilities; cited from earlier work

Row | Structure (SMILES) | Clone susceptibility to antimalarial (R/S)
8 | CC1(C)N=C(N)N=C(N)N1c1ccc(Cl)cc1 [CG, cycloguanil] | R
9 | Cc1cc(Nc2ccc3ccccc3c2)n2ncnc2n1 [DSM1] | S
10 | OC(c1cc(C(F)(F)F)nc2c(C(F)(F)F)cccc12)C1CCCCN1 (stereo not drawn) [MQ, mefloquine] | S
11 | C[C@@H]1CC[C@H]2[C@@H](C)C(=O)O[C@@H]3O[C@@]4(C)CC[C@@H]1[C@]32OO4 [artemisinin] | S

System: P. falciparum clone IPC 5202
Test: not given
Set-up: method as in BEI, Didier Menard
Details: by EC50 or, for ART, RSA, well-characterized susceptibilities, ref BEI, Didier Menard; cited from earlier work

Row | Structure (SMILES) | Clone susceptibility to antimalarial (R/S)
12 | CC1(C)N=C(N)N=C(N)N1c1ccc(Cl)cc1 [CG, cycloguanil] | R
13 | Cc1cc(Nc2ccc3ccccc3c2)n2ncnc2n1 [DSM1] | S
14 | OC(c1cc(C(F)(F)F)nc2c(C(F)(F)F)cccc12)C1CCCCN1 (stereo not drawn) [MQ, mefloquine] | R
15 | C[C@@H]1CC[C@H]2[C@@H](C)C(=O)O[C@@H]3O[C@@]4(C)CC[C@@H]1[C@]32OO4 [artemisinin] | R

System: P. falciparum clone V1/S
Test: not given
Details: by EC50 or, for ART, RSA, well-characterized susceptibilities; cited from earlier work

Row | Structure (SMILES) | Clone susceptibility to antimalarial (R/S)
16 | CC1(C)N=C(N)N=C(N)N1c1ccc(Cl)cc1 [CG, cycloguanil] | R
17 | Cc1cc(Nc2ccc3ccccc3c2)n2ncnc2n1 [DSM1] | S
18 | OC(c1cc(C(F)(F)F)nc2c(C(F)(F)F)cccc12)C1CCCCN1 (stereo not drawn) [MQ, mefloquine] | S
19 | C[C@@H]1CC[C@H]2[C@@H](C)C(=O)O[C@@H]3O[C@@]4(C)CC[C@@H]1[C@]32OO4 [artemisinin] | S

System: human liver cell line HepG2
Test: In vitro cytotoxicity assay
Format: cell-based
Details: HepG2 vs 3D7
Description: as §1

Row | Structure (SMILES) | Selectivity index (EC50 of HepG2/EC50 3D7)
20 | Cc1cc(Nc2ccc(S(F)(F)(F)(F)F)cc2)n2nc(C(C)(F)F)nc2n1 [DSM265] | 1,980

Same assay, conditions: Homo sapiens, HepG2; read-out: EC50 (µM) (95% CI) HepG2

Row | Structure (SMILES) | EC50
21 | Cc1cc(Nc2ccc(S(F)(F)(F)(F)F)cc2)n2nc(C(C)(F)F)nc2n1 [DSM265] | 9.9 µM
22 | CN(Cc1cnc2nc(N)nc(N)c2n1)c1ccc(C(=O)N[C@@H](CCC(=O)O)C(=O)O)cc1 [Methotrexate] | > 1 µM

System: P. falciparum clone 3D7
Test: not given
Details: by EC50 or, for ART, RSA, well-characterized susceptibilities; cited from earlier work

Row | Structure (SMILES) | Clone susceptibility to antimalarial (R/S)
23 | CC1(C)N=C(N)N=C(N)N1c1ccc(Cl)cc1 [CG, cycloguanil] | S
24 | Cc1cc(Nc2ccc3ccccc3c2)n2ncnc2n1 [DSM1] | S
25 | OC(c1cc(C(F)(F)F)nc2c(C(F)(F)F)cccc12)C1CCCCN1 (stereo not drawn) [MQ, mefloquine] | S
26 | C[C@@H]1CC[C@H]2[C@@H](C)C(=O)O[C@@H]3O[C@@]4(C)CC[C@@H]1[C@]32OO4 [artemisinin] | S

System: P. falciparum clone HB3
Test: not given
Details: by EC50 or, for ART, RSA, well-characterized susceptibilities; cited from earlier work

Row | Structure (SMILES) | Clone susceptibility to antimalarial (R/S)
27 | CC1(C)N=C(N)N=C(N)N1c1ccc(Cl)cc1 [CG, cycloguanil] | S
28 | Cc1cc(Nc2ccc3ccccc3c2)n2ncnc2n1 [DSM1] | S
29 | OC(c1cc(C(F)(F)F)nc2c(C(F)(F)F)cccc12)C1CCCCN1 (stereo not drawn) [MQ, mefloquine] | S
30 | C[C@@H]1CC[C@H]2[C@@H](C)C(=O)O[C@@H]3O[C@@]4(C)CC[C@@H]1[C@]32OO4 [artemisinin] | S

System: P. falciparum clone Dd2
Test: not given
Details: by EC50 or, for ART, RSA, well-characterized susceptibilities; cited from earlier work

Row | Structure (SMILES) | Clone susceptibility to antimalarial (R/S)
31 | CC1(C)N=C(N)N=C(N)N1c1ccc(Cl)cc1 [CG, cycloguanil] | R
32 | Cc1cc(Nc2ccc3ccccc3c2)n2ncnc2n1 [DSM1] | S
33 | OC(c1cc(C(F)(F)F)nc2c(C(F)(F)F)cccc12)C1CCCCN1 (stereo not drawn) [MQ, mefloquine] | R
34 | C[C@@H]1CC[C@H]2[C@@H](C)C(=O)O[C@@H]3O[C@@]4(C)CC[C@@H]1[C@]32OO4 [artemisinin] | S

System: Pf 3D7
Test: Parasite growth alongside mammalian cytotoxicity assays
Format: cell-based
Details: Plasmodium falciparum; 3D7, grown under identical conditions alongside mammalian cells; read-out: EC50 (µM) (95% CI) 3D7
Description: as §1

Row | Structure (SMILES) | EC50
35 | Cc1cc(Nc2ccc(S(F)(F)(F)(F)F)cc2)n2nc(C(C)(F)F)nc2n1 [DSM265] | 0.005 µM
36 | CN(Cc1cnc2nc(N)nc(N)c2n1)c1ccc(C(=O)N[C@@H](CCC(=O)O)C(=O)O)cc1 [Methotrexate] | 0.047 µM

System: P. falciparum clone GMC1
Test: not given
Details: by EC50 or, for ART, RSA, well-characterized susceptibilities; cited from earlier work

Row | Structure (SMILES) | Clone susceptibility to antimalarial (R/S)
37 | CC1(C)N=C(N)N=C(N)N1c1ccc(Cl)cc1 [CG, cycloguanil] | R
38 | Cc1cc(Nc2ccc3ccccc3c2)n2ncnc2n1 [DSM1] | S
39 | OC(c1cc(C(F)(F)F)nc2c(C(F)(F)F)cccc12)C1CCCCN1 (stereo not drawn) [MQ, mefloquine] | S
40 | C[C@@H]1CC[C@H]2[C@@H](C)C(=O)O[C@@H]3O[C@@]4(C)CC[C@@H]1[C@]32OO4 [artemisinin] | S

System: P. falciparum clone NF54
Test: not given
Details: by EC50 or, for ART, RSA, well-characterized susceptibilities; cited from earlier work

Row | Structure (SMILES) | Clone susceptibility to antimalarial (R/S)
41 | CC1(C)N=C(N)N=C(N)N1c1ccc(Cl)cc1 [CG, cycloguanil] | S
42 | Cc1cc(Nc2ccc3ccccc3c2)n2ncnc2n1 [DSM1] | S
43 | OC(c1cc(C(F)(F)F)nc2c(C(F)(F)F)cccc12)C1CCCCN1 (stereo not drawn) [MQ, mefloquine] | S
44 | C[C@@H]1CC[C@H]2[C@@H](C)C(=O)O[C@@H]3O[C@@]4(C)CC[C@@H]1[C@]32OO4 [artemisinin] | S

System: P. falciparum clone D10 w/ yDHODH
Test: not given
Details: by EC50 or, for ART, RSA, well-characterized susceptibilities; cited from earlier work

Row | Structure (SMILES) | Clone susceptibility to antimalarial (R/S)
45 | Cc1cc(Nc2ccc3ccccc3c2)n2ncnc2n1 [DSM1] | R
46 | OC(c1cc(C(F)(F)F)nc2c(C(F)(F)F)cccc12)C1CCCCN1 (stereo not drawn) [MQ, mefloquine] | S
47 | C[C@@H]1CC[C@H]2[C@@H](C)C(=O)O[C@@H]3O[C@@]4(C)CC[C@@H]1[C@]32OO4 [artemisinin] | S

System: P. falciparum 3D7 asexual blood stages
Test: Standard 72-hour inhibitor-response (parasite proliferation) assay
Format: cell-based
Details: Plasmodium falciparum; 3D7, 72-hour assay; read-out: 3D7 EC50

Row | Structure (SMILES) | EC50
48 | Cc1cc(Nc2ccc(S(F)(F)(F)(F)F)cc2)n2nc(C(C)(F)F)nc2n1 [DSM265] | 5 nM
49 | C[C@@H]1CC[C@H]2[C@@H](C)C(=O)O[C@@H]3O[C@@]4(C)CC[C@@H]1[C@]32OO4 [artemisinin] | 6 nM

System: P. falciparum clone D6
Test: not given
Details: by EC50 or, for ART, RSA, well-characterized susceptibilities; cited from earlier work

Row | Structure (SMILES) | Clone susceptibility to antimalarial (R/S)
50 | CC1(C)N=C(N)N=C(N)N1c1ccc(Cl)cc1 [CG, cycloguanil] | S
51 | Cc1cc(Nc2ccc3ccccc3c2)n2ncnc2n1 [DSM1] | S
52 | OC(c1cc(C(F)(F)F)nc2c(C(F)(F)F)cccc12)C1CCCCN1 (stereo not drawn) [MQ, mefloquine] | S
53 | C[C@@H]1CC[C@H]2[C@@H](C)C(=O)O[C@@H]3O[C@@]4(C)CC[C@@H]1[C@]32OO4 [artemisinin] | S

System: P. falciparum clone IPC 3445
Test: not given
Set-up: method as in BEI, Didier Menard
Details: by EC50 or, for ART, RSA, well-characterized susceptibilities, ref BEI, Didier Menard; cited from earlier work

Row | Structure (SMILES) | Clone susceptibility to antimalarial (R/S)
54 | CC1(C)N=C(N)N=C(N)N1c1ccc(Cl)cc1 [CG, cycloguanil] | R
55 | Cc1cc(Nc2ccc3ccccc3c2)n2ncnc2n1 [DSM1] | S
56 | OC(c1cc(C(F)(F)F)nc2c(C(F)(F)F)cccc12)C1CCCCN1 (stereo not drawn) [MQ, mefloquine] | R
57 | C[C@@H]1CC[C@H]2[C@@H](C)C(=O)O[C@@H]3O[C@@]4(C)CC[C@@H]1[C@]32OO4 [artemisinin] | R

From article PMC10848769, “Tartrolon E, a secondary metabolite of a marine symbiotic bacterium, is a potent inhibitor of asexual and sexual Plasmodium falciparum” (Antimicrobial Agents and Chemotherapy, 2024)
